For series [1], the target named is T1, medaka ARβ (mArβ) (Oryzias latipes, UniProt D1MV73).
T1 sequence (D1MV73 1-744): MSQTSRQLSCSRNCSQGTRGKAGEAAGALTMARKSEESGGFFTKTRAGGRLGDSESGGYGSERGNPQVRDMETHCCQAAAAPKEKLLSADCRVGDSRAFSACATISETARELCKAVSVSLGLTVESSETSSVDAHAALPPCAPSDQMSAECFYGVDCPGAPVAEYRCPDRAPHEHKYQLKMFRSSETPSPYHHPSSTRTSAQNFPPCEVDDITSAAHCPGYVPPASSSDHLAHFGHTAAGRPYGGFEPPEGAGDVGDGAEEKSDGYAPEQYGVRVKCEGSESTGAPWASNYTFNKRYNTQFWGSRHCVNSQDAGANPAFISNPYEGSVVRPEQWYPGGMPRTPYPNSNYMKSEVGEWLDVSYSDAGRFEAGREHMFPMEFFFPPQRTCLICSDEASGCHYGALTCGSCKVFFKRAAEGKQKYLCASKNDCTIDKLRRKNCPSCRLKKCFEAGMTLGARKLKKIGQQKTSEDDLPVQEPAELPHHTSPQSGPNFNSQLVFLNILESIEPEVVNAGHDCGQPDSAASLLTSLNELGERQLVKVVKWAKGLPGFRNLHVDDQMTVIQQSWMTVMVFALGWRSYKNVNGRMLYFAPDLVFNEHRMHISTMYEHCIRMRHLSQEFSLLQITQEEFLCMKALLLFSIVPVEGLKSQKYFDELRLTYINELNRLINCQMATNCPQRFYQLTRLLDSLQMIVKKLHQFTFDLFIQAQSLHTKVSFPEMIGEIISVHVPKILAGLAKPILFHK
Kind of series: Medaka ARβ reporter gene assay, antagonist assay. In kind it is cell-based, Japanese medaka (Oryzias latipes). In general terms: Reporter assays use an easily measured gene product as a stand-in for the process of interest.

Series [2] addresses T2, medaka Esr1 (mEsr1) (Oryzias latipes, UniProt P50241).
T2 sequence (P50241 1-620): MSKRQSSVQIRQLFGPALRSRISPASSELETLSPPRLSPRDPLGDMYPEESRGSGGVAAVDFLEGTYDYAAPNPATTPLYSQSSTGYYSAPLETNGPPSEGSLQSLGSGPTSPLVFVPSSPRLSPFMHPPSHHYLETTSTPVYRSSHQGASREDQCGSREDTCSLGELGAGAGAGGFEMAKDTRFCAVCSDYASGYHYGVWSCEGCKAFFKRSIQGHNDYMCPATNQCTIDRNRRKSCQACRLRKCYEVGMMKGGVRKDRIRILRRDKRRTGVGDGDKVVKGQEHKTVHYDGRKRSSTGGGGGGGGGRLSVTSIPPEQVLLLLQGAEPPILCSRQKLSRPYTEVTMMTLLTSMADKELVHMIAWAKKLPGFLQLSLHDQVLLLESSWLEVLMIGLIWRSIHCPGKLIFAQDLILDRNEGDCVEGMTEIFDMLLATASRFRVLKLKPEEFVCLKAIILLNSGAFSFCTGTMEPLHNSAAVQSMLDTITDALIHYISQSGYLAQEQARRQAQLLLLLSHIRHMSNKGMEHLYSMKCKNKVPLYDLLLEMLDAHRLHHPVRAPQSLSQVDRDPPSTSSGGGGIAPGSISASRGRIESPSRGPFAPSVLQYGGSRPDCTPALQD
The series can be described thus: cell-based. Also on record: species or system Japanese medaka (Oryzias latipes).

In series [3] the target is T1, medaka ARβ (mArβ). Kind of series: Medaka ARβ reporter gene assay, agonist assay. In kind it is cell-based, Japanese medaka (Oryzias latipes).
Series [4] addresses T2, medaka Esr1 (mEsr1). The series can be described thus: Medaka Esr1 reporter gene assay, antagonist assay. Format: cell-based, Japanese medaka (Oryzias latipes). The note with it: E2 spiked at 1.0 nM (B); MAC = 1.0 × 10^−5 M.
Series [5] relates to Japanese medaka (Oryzias latipes). The series can be described thus: Fish Short‐Term Reproduction Assay. In kind it is in vivo. The note with it: for GSI Female / GSI Male / HSI Female / HSI Male / Length Female / Length Male / Weight Female / Weight Male: completion of exposure.
Setting [6] is: measured concentration 25.3 μg/L.
Setting [7] is: measured concentration 82.3 μg/L.
The mark [8] stands for this setting: measured concentration 250 μg/L.

For `Oc1cccc2ccccc12` [Chemical 1NT, 1‐Naphtol], the Antagonistic activity entry is reported as “NE (MAC = 1.0 × 10^−4 M)^(C)” in series [1] (11‐KT spiked at 10 nM (C), MAC = 1.0 × 10^−4 M) and “NE (MAC = 1.0 × 10^−5 M)^(B)” in series [4]. Moreover, in series [2] (mode of action in which EC50 or PC10 was obtained in RGA), the “In vitro positive: Esr” value is given as “Esr”. In series [2] (read-out: Agonistic activity EC50, HEK293 cells), the EC50 – broadly, the concentration that produces a half-maximal response – came out at 78 µM. The “Agonistic activity PC10” value in series [3] (HepG2 cells, concentration with 10% of maximum activity of 11KT) is “PC10 = 3.3 × 10^−5 M”. Moreover, in series [3] (only PC10 and not EC50 could be estimated), the “Agonistic activity on mArβ (in words)” value is “positive agonistic activity”.
For `CC(C)(C)CC(C)(C)c1ccc(O)cc1` [Chemical 4tOP, 4‐tert‐Octylphenol], the Antagonistic activity entry in series [1] (11‐KT spiked at 50 nM (D), MAC = 1.0 × 10^−5 M) is “NE (MAC = 1.0 × 10^−5 M)^(D)”. Further, the Agonistic activity result in series [3] (MAC = 1.0 × 10^−5 M) is “NE (MAC = 1.0 × 10^−5 M)”. Further, in series [5] (25.3 μg/L measured, 21 d), the Fertility rate amounted to 91 ± 5.1%; the “Hepatic VTG, female” value is 3,710 ± 617 ng/mg‐liver; the “Hepatic VTG, male” value was determined as 3.2 ± 2.2 ng/mg‐liver; the Mortality was 0.0%. Further, in series [5] (25.3 μg/L measured, 21 d), the “Mortality, number of dead fish” value was determined as 0; the “Number of fertilized eggs (per female per day)” value is 24 ± 3.5; the “Number of total eggs (per female per day)” value is given as 26 ± 3.2; the “SSC female (joint plates with papillary processes)” value (from here on “SSC female”) worked out at 0 ± 0. Also, the “SSC male (joint plates with papillary processes)” value in series [5] (25.3 μg/L measured, 21 d) is recorded as 99 ± 4.1. In addition, in series [5] (82.3 μg/L measured, 21 d), the Fertility rate was found to be 92 ± 2.1%; the “Hepatic VTG, female” value is given as 4,380 ± 1,350 ng/mg‐liver; the Mortality was 4.2%; the “Mortality, number of dead fish” value is 1. In addition, in series [5] (82.3 μg/L measured, 21 d), the “Number of fertilized eggs (per female per day)” value worked out at 24 ± 1.5, the “Number of total eggs (per female per day)” value worked out at 27 ± 1.3 and the “SSC female” value was determined as 0 ± 0. Also, in series [5] (82.3 μg/L measured, 21 d, sig. ↑ vs control), the “Hepatic VTG, male” value was 5.6 ± 1.9 ng/mg‐liver. Moreover, in series [5] (250 μg/L measured, 21 d), the Fertility rate came out at 89 ± 3.3%; the “Hepatic VTG, female” value is reported as 5,290 ± 2030 ng/mg‐liver; the Mortality was 0.0%; the “Mortality, number of dead fish” value turned out to be 0. In series [5] (250 μg/L measured, 21 d), the “Number of fertilized eggs (per female per day)” value is 21 ± 2.6, the “Number of total eggs (per female per day)” value is 23 ± 2.6, the “SSC female” value amounted to 0 ± 0 and the “SSC male (joint plates with papillary processes)” value was 98 ± 8.5. In addition, the “LOEC, elevated hepatic VTG in males” value in series [5] (21 d) is 82.3 µg/L. The LOECREPRO entry in series [5] (LOEC on reproduction (fecundity and/or fertility)) is on record as “ND (>250) μg/L”. The minimal effective concentration in series [5] (Oryzias latipes, 504 h, read-out: LOECmVTG) worked out at 0.0823 µg/mL. In series [5] (lowest observed effect concentration on mortality), the LOECTOX entry is recorded as “ND (>250) μg/L”. Further, in series [5] (setting [6]), the “GSI Female” value is given as 11.4 ± 1.6%, the “GSI Male” value is given as 0.83 ± 0.11%, the “HSI Female” value is on record as 4.6 ± 0.82% and the “HSI Male” value is 2.1 ± 0.16%. In series [5] (setting [6]), the “Length Female” value was determined as 37.8 ± 0.5 mm, the “Length Male” value is on record as 37.0 ± 0.9 mm, the “Weight Female” value came out at 625 ± 55 mg and the “Weight Male” value came out at 608 ± 31 mg. Also, in series [5] (setting [7]), the “GSI Female” value came out at 10.7 ± 0.4%, the “GSI Male” value worked out at 0.81 ± 0.08%, the “HSI Female” value worked out at 4.1 ± 0.58% and the “HSI Male” value is 2.6 ± 0.10%. For the same compound, in series [5] (setting [7]), the “Length Female” value is 37.0 ± 0.2 mm, the “Length Male” value came out at 37.9 ± 0.6 mm, the “Weight Female” value worked out at 599 ± 16 mg and the “Weight Male” value came to 630 ± 44 mg. Further, in series [5] (setting [8]), the “GSI Female” value was 11.1 ± 2.0%, the “GSI Male” value is given as 0.81 ± 0.08%, the “HSI Female” value turned out to be 4.5 ± 0.29% and the “HSI Male” value was determined as 2.9 ± 0.28%. Moreover, in series [5] (setting [8]), the “Length Female” value is on record as 36.7 ± 0.5 mm, the “Length Male” value came out at 37.4 ± 0.4 mm, the “Weight Female” value is on record as 605 ± 10 mg and the “Weight Male” value came to 626 ± 21 mg.
As to `C[C@]12CC(=O)[C@H]3[C@@H](CCC4=CC(=O)CC[C@@]43C)[C@@H]1CC[C@@H]2O` [Chemical 11KT, 11‐ketotestosterone, reference compound], the EC50 in series [3] (read-out: Agonistic activity EC50, geometric mean, positive control, n = 5) worked out at 0.0058 µM.

Source of the values: article PMC9297976 (Journal of Applied Toxicology, 2021).
